Assays:
Assay type in all cases: cell-based
E. coli JT4 = experiment: MIC against E. coli JT4; conditions: Escherichia coli, AGAR
Source text: (§1) | MIC values (μg/ml) of the compounds of Example 4b against | a number of organisms important in human infections

E. coli JT425 = experiment: MIC against E. coli JT425; conditions: Escherichia coli, AGAR
Source text: as §1

E. coli NCTC 10418 = experiment: MIC against E. coli NCTC 10418; conditions: Escherichia coli
Source text: as §1

Ps aeruginosa 10662 = experiment: MIC against Ps aeruginosa 10662
Source text: as §1

Ps aeruginosa Dalgleish = experiment: MIC against Ps aeruginosa Dalgleish; conditions: AGAR; Ps aeruginosa Dalgleish 10^-2
Source text: as §1

Serratia marcescens US32 = experiment: MIC against Serratia marcescens US32; conditions: AGAR
Source text: as §1

Klebsiella aerogenes A = experiment: MIC against Klebsiella aerogenes A
Source text: as §1

Enterobacter cloacae N1 = experiment: MIC against Enterobacter cloacae N1; conditions: AGAR
Source text: as §1

P. mirabilis C977 = experiment: MIC against P. mirabilis C977; conditions: Proteus mirabilis, AGAR
Source text: as §1

P. mirabilis 889 = experiment: MIC against P. mirabilis 889; conditions: Proteus mirabilis, AGAR
Source text: as §1

P. morganii = experiment: MIC against P. morganii; conditions: Morganella morganii, AGAR
Source text: as §1

P. rettgeri = experiment: MIC against P. rettgeri; conditions: Providencia rettgeri, AGAR
Source text: as §1

B. subtilis = experiment: MIC against B. subtilis; conditions: Bacillus subtilis, AGAR
Source text: as §1

Staph. aureus Oxford = experiment: MIC against Staph. aureus Oxford; conditions: Staphylococcus aureus
Source text: as §1

Staph. aureus Russell = experiment: MIC against Staph. aureus Russell; conditions: Staphylococcus aureus, AGAR
Source text: as §1

S. faecalis I = experiment: MIC against S. faecalis I; conditions: Enterococcus faecalis, AGAR
Source text: as §1

β-Haemolytic Strep. CN10 = experiment: MIC against β-Haemolytic Strep. CN10; conditions: AGAR
Source text: as §1

- MIC (E. coli JT4): > 100 µg/mL
- MIC (E. coli JT425): 10 µg/mL
- MIC (E. coli NCTC 10418; NCTC10418, AGAR): 1 µg/mL
- MIC (E. coli NCTC 10418; NCTC10418, BROTH): 0.5 µg/mL
- MIC (Ps aeruginosa 10662; AGAR, Ps aeruginosa 10662): 10 µg/mL
- MIC (Ps aeruginosa 10662; AGAR, Ps aeruginosa 10662 10^-2): 5 µg/mL
- MIC (Ps aeruginosa 10662; BROTH, Ps aeruginosa 10662): 10 µg/mL
- MIC (Ps aeruginosa 10662; BROTH, Ps aeruginosa 10662 10^-2): 5 µg/mL
- MIC (Ps aeruginosa Dalgleish): > 100 µg/mL
- MIC (Serratia marcescens US32): 0.5 µg/mL
- MIC (Klebsiella aerogenes A; AGAR): 0.2 µg/mL
- MIC (Klebsiella aerogenes A; BROTH): > 10 µg/mL
- MIC (Enterobacter cloacae N1): 0.5 µg/mL
- MIC (P. mirabilis C977): 0.1 µg/mL
- MIC (P. mirabilis 889): > 100 µg/mL
- MIC (P. morganii): 0.2 µg/mL
- MIC (P. rettgeri): 0.5 µg/mL
- MIC (B. subtilis): 5 µg/mL
- MIC (Staph. aureus Oxford; AGAR): 1 µg/mL
- MIC (Staph. aureus Oxford; BROTH): 0.5 µg/mL
- MIC (Staph. aureus Russell): > 100 µg/mL
- MIC (S. faecalis I): 50 µg/mL
Structure (SMILES): CCN1CCN(C(=O)N[C@@H](C(=O)N[C@@H]2C(=O)N3[C@@H](C(=O)O)CS[C@H]23)c2ccccc2)C(=O)C1=O [Example 4b, Sodium 6β[D,2(4-ethyl-2,3-dioxopiperazine-1-carbonylamino)]phenylacetamidobisnorpenicillanate]
- MIC (β-Haemolytic Strep. CN10): 0.2 µg/mL

From US4416883A, “Penicillin derivatives” (Beecham Group Limited, priority 1980, dated 1983)
